Source: US6346541B1, “Cyanoguanidines as cell proliferation inhibitors” (Leo Pharmaceutical Products Ltd. A/S, priority 1997, dated 2002)

Columns and labels:
Assay type in all cases: cell-based
[1] = test system: human non small cell lung cancer (NCI-H460) cell line; assay: Inhibition of tumour cell proliferation in vitro ([3H]thymidine incorporation), NCI-H460; settings: NCI-H460 cells, cultured 24 hours with compound, DNA synthesis by [3H]thymidine incorporation
Protocol: (§1) The inhibition of tumour cell proliferation was studied using different types of human cancer cell lines. The cell lines under investigation were small cell lung carcinoma (NYH), non small cell lung carcinoma (NCI-H460), and breast cancer (MCF-7) using the following general procedure:
(§2) The cells were cultured in vitro for 24 hours in the presence of the compound under investigation. DNA synthesis was measured by incorporation of [3H]thymidine, and the median inhibitory concentrations (IC50) of the compounds were calculated.

[2] = test system: human small cell lung carcinoma (NYH) cell line; assay: Inhibition of tumour cell proliferation in vitro ([3H]thymidine incorporation), NYH; settings: NYH cells, cultured 24 hours with compound, DNA synthesis by [3H]thymidine incorporation
Protocol: as §1, §2

[3] = test system: human breast cancer (MCF-7) cell line; assay: Inhibition of tumour cell proliferation in vitro ([3H]thymidine incorporation), MCF-7; settings: MCF7, MCF-7 cells, cultured 24 hours with compound, DNA synthesis by [3H]thymidine incorporation
Protocol: as §1, §2

IC50 [1] [nM]	IC50 [2] [nM]	IC50 [3] [nM]	Structure (SMILES)
66	6.2	57	N#CNC(=Nc1ccncc1)NCCCCCCNC(=O)c1ccccc1 [Example No. 2, N-(6-Benzoylaminohexyl)-N′-cyano-N″-4-pyridylguanidine]
–	1.7	2.2	N#CNC(=Nc1ccncc1)NCCCCCCOC(=O)c1ccc(Cl)cc1 [Example No. 4, N-(6-(4-Chlorobenzoyloxy)hexyl)-N′-cyano-N″-4-pyridylguanidine]
